Consider one compound from patent US11707447B1.

Data set [1] concerns the target NMDAR (Homo sapiens, UniProt Q05586+Q13224). Description: SAFETYscan ion channel assay, FLIPR membrane potential (opener/blocker). The format is cell-based.
Data set [2] addresses HTR1A (5-HT1A) (Homo sapiens, UniProt P08908). Description: SAFETYscan EFC-based cAMP secondary messenger assay (agonist/antagonist mode).
The nature of data set [3]: in vitro. The conditions noted are these: for half-life: human, 37° C., read-out: half-life (T1/2). The format is in vitro ADME, human. From the text:
A fundamental evaluation in drug development is the assessment of absorption, distribution, metabolism, excretion, and pharmacokinetics (ADME/PK) (Eddershaw et al., 2000, Drug Discovery Today 5(9): 409-414). […] Drug stability upon exposure to human liver microsomes and liver S9 cellular fractions is a common in vitro assay to approximate in vivo, liver-based drug metabolism (Richardson et al., 2016 Drug Metabolism Letters 10:83-90). First-pass metabolism is also often approximated in vitro using intestinal microsome and cellular S9 fractions (Hatley et al., 2017, Biopharmaceuticals & Drug Disposition, 38(2):155-160). Further, it is well known that human serum, and particularly circulating serum esterases can contribute to systemic drug metabolism (Williams, F M 1987, Pharmacology and Therapeutics, 34:99-109). Many pharmacological agents are classified as prodrugs, as they undergo metabolic transformation in vivo upon administration to release the active drug compound into the systemic compartment (Zawilska J B, et al. 2013, Pharmacological Reports, 65:1-14). Psilocybin, a serotonergic psychedelic agent, is well known prodrug that is metabolized into the psychoactive product, psilocin (Dinis-Oliveira, R J 2017, Drug Metabolism Reviews, 49(1):84-91). To evaluate the capacity of test molecules to similarly serve as prodrugs of psilocin, time-dependent, metabolic stability assays using human AB serum, human intestinal microsomes (HIM), human intestinal S9 fractions (HIS9), human liver microsomes (HLM), human liver S9 fractions (HLS9), human alkaline phosphatase, and porcine esterase were performed. […] Liquid chromatography coupled mass spectrometry (LC-MS) was employed to track the conversion of the test molecules into psilocin. All intestinal and liver fractions and NADPH RapidStart reagent was purchased from Sekisui/XenoTech. Human AB serum was purchased from Sigma. For intestine and liver metabolism assays, 2.5 μM candidate compounds were incubated in 400 μg/ml of each cellular fraction (HLM, HLS9, HIM, or HIS9) in 50 mM potassium phosphate buffer (pH 7.4) containing 3 mM MgCl2 and 1 mM EDTA supplemented with NADPH RapidStart at 37° C. Samples were taken at the start of the assay, and at every 20 minutes for 2 hours. Time-point samples were precipitated with 1:1 volume of acetonitrile to quench the reaction before centrifugation at 4000×g for 20 minutes. Supernatants were analyzed for the presence of candidate prodrugs (parent molecule) and psilocin (the predicted metabolite) using Orbitrap LC-MS (Thermo Scientific) using previously described methods (Menéndez-Perdomo et al., 2021, J. Mass Spectrom., 56: e4683). The serum assays were carried out in 10% human AB serum in 50 mM potassium phosphate buffer (pH 7.4) containing 3 mM MgCl2 and 1 mM EDTA. Bovine alkaline phosphatase assays were carried out using one unit of purified enzyme in 50 mM potassium phosphate buffer (pH 7.4) containing 3 mM MgCl2 and 1 mM EDTA. Porcine esterase assays were carried out using one unit of purified enzyme in 50 mM potassium phosphate buffer (pH 7.4) containing 3 mM MgCl2 and 1 mM EDTA. Assay concentrations (μM) of both parent ‘prodrug’ molecule and psilocin metabolite, as quantified through LC-MS using routine standard curve procedures, were plotted as functions of assay time (minutes). The metabolism rate (T1/2) was determined from the metabolism curve plot using the one phase decay feature of GraphPad PRISM software (Version 9.2.0). The quantity of parent prodrug at time zero was set as 100%.
Positive controls were first tested to ensure that assays were functioning properly.

For data set [4], the target named is DRD2S (Homo sapiens, UniProt P14416). Description: SAFETYscan EFC-based cAMP secondary messenger assay (agonist/antagonist mode).
Data set [5] addresses CNR1 (Homo sapiens, UniProt P21554). The data set is described as above.
Data set [6] has as its target T1, 5-HT2A receptor (Mus musculus, UniProt P35363).
T1 construct: tissue Charles River; host or cells: whole animal, C57BL/6-Elite mice (brain neurons)
Description: Drug-induced Head Twitch Response (HTR) in mice. The format is in vivo. The conditions noted are these: 1 mg/kg i.p., 15-to-30-minute window after dosing, vs vehicle.

The target in data set [7] is ADRA2A (Homo sapiens, UniProt P08913). Put plainly: SAFETYscan EFC-based cAMP secondary messenger assay (agonist/antagonist mode).
Data set [8] has as its target DRD1 (Homo sapiens, UniProt P21728). The description is as above. The format is cell-based.
The target of data set [9] is OPRD1 (Homo sapiens, UniProt P41143). The data set is described as above.
The target of data set [10] is CHRM1 (Homo sapiens, UniProt P11229). Put plainly: cell-based.
Data set [11] deals with T2, MAO-A (Homo sapiens, UniProt P21397).
T2 construct: purchased Sigma
Description: MAO-A enzyme assay (kynuramine substrate). The format is biochemical.

The target in data set [12] is SERT (Homo sapiens, UniProt P31645). Put plainly: cell-based. The conditions noted are these: blocker mode.

Entries after “also recorded” stand apart in the source; their conditions may differ. Where two headings read alike, the source gives them in different places.

Sequence of ADRA2A (P08913 whole entry): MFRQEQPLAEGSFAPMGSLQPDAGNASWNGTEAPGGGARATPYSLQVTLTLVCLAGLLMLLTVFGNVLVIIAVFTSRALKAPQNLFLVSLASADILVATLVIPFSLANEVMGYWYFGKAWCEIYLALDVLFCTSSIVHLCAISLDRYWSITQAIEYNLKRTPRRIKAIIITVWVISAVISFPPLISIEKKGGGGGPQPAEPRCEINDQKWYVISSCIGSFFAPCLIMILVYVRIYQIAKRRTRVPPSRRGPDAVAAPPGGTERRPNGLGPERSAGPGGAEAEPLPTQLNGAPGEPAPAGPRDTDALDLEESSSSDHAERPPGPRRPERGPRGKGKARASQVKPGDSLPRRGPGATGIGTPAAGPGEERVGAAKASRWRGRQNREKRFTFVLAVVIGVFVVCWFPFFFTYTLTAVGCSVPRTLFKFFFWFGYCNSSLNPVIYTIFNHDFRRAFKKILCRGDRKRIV
Sequence of CNR1 (P21554 whole entry): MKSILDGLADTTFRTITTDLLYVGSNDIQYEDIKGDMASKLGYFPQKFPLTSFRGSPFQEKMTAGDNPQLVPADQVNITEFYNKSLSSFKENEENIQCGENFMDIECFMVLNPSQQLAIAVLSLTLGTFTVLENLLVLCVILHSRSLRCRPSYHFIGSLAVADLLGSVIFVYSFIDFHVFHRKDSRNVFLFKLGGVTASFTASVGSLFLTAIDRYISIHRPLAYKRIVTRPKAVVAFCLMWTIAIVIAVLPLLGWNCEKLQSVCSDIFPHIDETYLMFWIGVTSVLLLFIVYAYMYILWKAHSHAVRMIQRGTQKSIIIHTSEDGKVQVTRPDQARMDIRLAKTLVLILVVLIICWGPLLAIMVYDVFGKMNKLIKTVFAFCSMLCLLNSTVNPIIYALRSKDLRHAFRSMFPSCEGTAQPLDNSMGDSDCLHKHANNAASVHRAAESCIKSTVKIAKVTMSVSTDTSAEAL
Sequence of NMDAR (Q13224 27-1484, other chains not shown): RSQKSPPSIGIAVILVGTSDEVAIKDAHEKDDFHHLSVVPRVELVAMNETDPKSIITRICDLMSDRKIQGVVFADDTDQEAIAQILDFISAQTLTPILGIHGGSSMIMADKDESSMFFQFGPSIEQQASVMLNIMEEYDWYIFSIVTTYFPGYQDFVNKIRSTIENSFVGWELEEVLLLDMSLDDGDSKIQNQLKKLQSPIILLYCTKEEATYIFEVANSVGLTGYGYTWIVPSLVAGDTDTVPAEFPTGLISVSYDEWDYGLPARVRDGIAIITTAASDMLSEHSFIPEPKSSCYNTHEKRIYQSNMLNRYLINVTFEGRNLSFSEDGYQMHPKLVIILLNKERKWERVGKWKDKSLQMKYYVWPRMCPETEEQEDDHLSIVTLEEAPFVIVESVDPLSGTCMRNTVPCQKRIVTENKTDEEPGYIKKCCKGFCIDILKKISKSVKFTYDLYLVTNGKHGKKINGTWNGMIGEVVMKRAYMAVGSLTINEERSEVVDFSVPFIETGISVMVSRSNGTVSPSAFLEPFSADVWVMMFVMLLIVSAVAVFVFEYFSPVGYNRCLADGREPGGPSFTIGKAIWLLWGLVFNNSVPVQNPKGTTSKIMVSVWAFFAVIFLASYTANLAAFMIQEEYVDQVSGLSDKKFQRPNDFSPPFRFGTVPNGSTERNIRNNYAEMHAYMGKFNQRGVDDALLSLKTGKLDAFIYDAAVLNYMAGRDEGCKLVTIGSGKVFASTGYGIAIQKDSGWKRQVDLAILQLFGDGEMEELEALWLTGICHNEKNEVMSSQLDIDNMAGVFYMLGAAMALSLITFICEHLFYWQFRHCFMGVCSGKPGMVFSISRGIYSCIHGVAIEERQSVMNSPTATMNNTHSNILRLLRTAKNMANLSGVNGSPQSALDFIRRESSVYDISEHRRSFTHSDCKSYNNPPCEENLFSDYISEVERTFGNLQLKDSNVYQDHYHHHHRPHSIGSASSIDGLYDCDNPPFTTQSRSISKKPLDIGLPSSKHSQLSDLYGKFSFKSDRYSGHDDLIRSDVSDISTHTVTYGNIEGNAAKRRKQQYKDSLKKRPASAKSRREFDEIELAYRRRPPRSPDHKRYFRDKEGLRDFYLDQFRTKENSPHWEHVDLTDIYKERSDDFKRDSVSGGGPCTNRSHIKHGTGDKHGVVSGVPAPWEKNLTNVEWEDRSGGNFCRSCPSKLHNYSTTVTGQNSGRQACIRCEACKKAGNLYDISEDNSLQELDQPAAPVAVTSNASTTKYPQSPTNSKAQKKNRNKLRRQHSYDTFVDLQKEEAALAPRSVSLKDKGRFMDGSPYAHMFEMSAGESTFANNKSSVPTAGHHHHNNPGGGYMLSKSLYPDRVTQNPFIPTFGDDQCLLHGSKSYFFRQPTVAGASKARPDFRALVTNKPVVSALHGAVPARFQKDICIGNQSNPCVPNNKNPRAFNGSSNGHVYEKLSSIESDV
Sequence of DRD2S (P14416 1-414 isoform P14416-2): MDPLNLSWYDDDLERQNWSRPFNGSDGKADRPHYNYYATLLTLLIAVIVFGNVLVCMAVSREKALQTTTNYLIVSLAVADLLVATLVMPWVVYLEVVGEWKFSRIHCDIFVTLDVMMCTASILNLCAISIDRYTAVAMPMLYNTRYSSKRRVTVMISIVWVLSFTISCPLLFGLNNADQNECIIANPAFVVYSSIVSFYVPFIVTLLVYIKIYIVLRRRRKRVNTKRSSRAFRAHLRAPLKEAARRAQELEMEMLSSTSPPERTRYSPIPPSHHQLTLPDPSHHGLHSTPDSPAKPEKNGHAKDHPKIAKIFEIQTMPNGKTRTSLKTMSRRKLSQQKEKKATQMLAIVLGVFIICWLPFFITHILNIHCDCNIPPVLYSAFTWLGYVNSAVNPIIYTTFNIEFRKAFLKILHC
T1 sequence (P35363 whole entry): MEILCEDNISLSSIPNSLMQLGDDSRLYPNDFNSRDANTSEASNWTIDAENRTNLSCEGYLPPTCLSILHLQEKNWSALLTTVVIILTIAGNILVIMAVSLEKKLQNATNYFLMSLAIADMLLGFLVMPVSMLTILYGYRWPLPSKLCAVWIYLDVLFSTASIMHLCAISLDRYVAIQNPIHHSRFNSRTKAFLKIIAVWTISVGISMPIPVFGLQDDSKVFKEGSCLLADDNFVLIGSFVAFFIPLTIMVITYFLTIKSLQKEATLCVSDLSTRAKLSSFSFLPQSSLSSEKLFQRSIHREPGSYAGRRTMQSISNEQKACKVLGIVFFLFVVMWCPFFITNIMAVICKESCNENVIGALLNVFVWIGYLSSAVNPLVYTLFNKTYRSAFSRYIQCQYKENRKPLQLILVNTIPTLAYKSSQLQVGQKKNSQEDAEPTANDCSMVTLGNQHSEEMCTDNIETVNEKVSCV
Sequence of CHRM1 (P11229 whole entry): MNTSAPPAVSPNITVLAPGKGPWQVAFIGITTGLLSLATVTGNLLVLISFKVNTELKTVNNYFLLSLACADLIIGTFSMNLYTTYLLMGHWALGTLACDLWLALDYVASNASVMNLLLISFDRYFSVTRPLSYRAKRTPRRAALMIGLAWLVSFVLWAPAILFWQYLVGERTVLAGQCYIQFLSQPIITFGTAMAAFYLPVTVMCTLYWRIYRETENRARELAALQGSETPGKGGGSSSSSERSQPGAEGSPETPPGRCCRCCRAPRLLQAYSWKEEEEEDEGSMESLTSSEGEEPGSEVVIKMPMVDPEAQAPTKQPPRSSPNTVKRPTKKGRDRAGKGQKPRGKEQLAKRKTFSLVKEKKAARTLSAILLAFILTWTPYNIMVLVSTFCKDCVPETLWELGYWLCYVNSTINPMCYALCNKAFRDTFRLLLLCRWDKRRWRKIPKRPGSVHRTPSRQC
Sequence of DRD1 (P21728 whole entry): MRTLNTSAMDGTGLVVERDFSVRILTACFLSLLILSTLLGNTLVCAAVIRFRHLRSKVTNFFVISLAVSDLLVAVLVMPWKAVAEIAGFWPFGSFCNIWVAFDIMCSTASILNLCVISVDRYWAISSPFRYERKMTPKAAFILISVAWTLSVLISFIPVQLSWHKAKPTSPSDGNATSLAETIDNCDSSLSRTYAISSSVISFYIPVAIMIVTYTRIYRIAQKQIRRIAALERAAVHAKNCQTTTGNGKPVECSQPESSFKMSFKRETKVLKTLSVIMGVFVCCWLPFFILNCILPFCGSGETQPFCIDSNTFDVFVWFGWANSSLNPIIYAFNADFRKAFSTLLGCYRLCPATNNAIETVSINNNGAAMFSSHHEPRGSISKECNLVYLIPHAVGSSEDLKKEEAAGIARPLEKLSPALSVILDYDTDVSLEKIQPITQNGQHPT
Sequence of HTR1A (5-HT1A) (P08908 whole entry): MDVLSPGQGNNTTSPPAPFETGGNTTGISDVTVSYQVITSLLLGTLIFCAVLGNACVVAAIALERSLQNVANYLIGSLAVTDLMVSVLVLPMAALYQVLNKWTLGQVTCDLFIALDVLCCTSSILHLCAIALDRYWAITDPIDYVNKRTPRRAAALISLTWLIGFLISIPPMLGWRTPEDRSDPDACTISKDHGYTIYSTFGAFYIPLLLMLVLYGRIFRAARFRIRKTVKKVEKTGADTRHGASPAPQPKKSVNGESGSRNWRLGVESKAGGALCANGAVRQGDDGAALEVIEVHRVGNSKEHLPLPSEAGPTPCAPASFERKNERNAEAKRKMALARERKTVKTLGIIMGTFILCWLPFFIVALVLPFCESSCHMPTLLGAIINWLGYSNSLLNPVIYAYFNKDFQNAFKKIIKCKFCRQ
Sequence of OPRD1 (P41143 whole entry): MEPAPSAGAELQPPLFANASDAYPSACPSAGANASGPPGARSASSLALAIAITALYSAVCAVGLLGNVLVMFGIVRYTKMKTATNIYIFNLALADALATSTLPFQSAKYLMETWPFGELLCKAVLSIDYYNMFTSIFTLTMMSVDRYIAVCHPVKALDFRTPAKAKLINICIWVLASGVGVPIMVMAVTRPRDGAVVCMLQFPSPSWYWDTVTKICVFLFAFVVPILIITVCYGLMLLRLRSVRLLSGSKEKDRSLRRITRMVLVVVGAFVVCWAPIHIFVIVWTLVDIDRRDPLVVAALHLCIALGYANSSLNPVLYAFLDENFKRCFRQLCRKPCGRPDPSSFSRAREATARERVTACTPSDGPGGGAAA

Turning to `CN(C)CCc1c[nH]c2cccc(OC(=O)SCc3ccccc3)c12` [E(VI)], the EC50 is above 100 µM in [1]; 11.4 µM in data set [2]; above 100 µM in data set [4]; above 100 µM in data set [5]; above 100 µM in data set [7]; above 100 µM in [8]. The EC50 in data set [9] was 28.5 µM; in [10] (agonist mode) it was above 100 µM. The 50% inhibitory concentration (IC50) in data set [1] was 15 µM; in data set [2], above 100 µM; in data set [4] it was 13.3 µM; in [5], 97 µM; in data set [7], 19.8 µM; in [8], 7.11 µM. Further, the IC50 in [9] was above 100 µM; in data set [10] (antagonist mode), 15.1 µM; in data set [11], above 100 µM; in data set [12] it was 9.06 µM. Also, the “metabolic stability / conversion to psilocin (in words)” value in data set [3] (HLM) is “quickly converted to psilocin in liver fractions and serum”; in data set [3] (HLS9), “quickly converted to psilocin in liver fractions and serum”. Further, the half-life in data set [3] (microsomes, pH 7.4, HLM, 2.5 μM compound) stood at 6 min; in [3] (s9, pH 7.4, HLS9, 2.5 μM compound), 5 min. Also, in data set [6], the “Head Twitch Response (in words)” value is on record as “Elevated incidences of HTR; also recorded: elevated response was observed in mice treated with E(VI) compared to B(II)”.

The EC50 is the midpoint of the concentration-response curve. Usually IC50 stands for the midpoint of a concentration-inhibition curve.
